Reference: ChEMBL document CHEMBL1201862, “PubChem BioAssay data set” (2004)
The source made the active and inactive calls.

Key:
Aminopeptidase N = biological target: T1, Aminopeptidase N (Plasmodium falciparum FcB1/Columbia, UniProt O96935); test: malaria alanyl aminopeptidase activity blockers – biochemical, fluorogenic H-Leu-NHMec substrate, 1536-well (AID 1445); set-up: species or system Plasmodium falciparum 3D7, 3D7
T1 sequence (O96935 whole entry): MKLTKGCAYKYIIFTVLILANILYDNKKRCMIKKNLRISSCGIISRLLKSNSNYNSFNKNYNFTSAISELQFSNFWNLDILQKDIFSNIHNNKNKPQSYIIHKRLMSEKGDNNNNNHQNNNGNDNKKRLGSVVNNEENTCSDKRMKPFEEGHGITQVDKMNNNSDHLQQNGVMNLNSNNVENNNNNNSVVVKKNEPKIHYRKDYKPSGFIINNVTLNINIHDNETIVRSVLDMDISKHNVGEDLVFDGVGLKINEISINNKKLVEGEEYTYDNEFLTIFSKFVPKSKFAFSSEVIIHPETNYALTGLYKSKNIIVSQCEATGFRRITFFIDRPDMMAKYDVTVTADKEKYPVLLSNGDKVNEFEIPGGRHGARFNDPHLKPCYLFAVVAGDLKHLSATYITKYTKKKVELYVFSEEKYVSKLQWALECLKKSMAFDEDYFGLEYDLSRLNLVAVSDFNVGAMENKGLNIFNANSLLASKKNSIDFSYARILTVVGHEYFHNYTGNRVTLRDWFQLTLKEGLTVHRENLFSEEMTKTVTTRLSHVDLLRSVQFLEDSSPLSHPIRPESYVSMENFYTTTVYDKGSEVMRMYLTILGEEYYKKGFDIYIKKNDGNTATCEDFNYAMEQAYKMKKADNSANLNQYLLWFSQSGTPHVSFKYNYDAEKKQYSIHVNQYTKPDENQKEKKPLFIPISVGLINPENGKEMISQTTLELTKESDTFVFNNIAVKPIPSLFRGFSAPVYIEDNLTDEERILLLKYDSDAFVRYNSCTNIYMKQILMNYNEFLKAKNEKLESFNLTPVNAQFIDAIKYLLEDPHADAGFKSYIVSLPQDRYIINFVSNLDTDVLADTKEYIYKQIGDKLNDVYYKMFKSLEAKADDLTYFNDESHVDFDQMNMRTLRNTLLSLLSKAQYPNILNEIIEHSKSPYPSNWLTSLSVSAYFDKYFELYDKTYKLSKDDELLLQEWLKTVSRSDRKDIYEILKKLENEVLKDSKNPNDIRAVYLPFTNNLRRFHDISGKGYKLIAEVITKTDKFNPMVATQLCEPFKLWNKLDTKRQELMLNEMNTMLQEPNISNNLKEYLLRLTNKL

Coagulation factor XII = biological target: T2, Coagulation factor XII (Homo sapiens, UniProt P00748); type: functional;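 also: activated factor XIIa alpha cleaving a fluorogenic AMC peptide substrate; inhibitor potency from loss of enzyme activity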
T2 sequence (P00748 whole entry): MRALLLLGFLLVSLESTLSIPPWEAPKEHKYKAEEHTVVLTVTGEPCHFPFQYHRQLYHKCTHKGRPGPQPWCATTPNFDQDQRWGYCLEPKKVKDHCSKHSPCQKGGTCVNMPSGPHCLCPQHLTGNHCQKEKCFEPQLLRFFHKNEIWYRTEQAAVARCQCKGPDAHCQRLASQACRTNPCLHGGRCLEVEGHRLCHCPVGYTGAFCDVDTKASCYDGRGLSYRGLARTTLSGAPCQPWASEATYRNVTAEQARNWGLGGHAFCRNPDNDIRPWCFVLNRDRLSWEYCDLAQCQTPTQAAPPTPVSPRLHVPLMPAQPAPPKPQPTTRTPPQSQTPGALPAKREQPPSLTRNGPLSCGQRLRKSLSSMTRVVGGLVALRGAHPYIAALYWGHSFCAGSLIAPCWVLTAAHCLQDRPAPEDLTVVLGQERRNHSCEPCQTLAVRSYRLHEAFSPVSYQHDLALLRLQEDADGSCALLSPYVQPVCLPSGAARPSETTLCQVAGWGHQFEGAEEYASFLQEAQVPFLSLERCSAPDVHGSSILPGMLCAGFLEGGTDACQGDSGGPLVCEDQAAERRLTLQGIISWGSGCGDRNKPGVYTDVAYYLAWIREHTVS

[1] = off-target signal loss in HeLa-CEM21 co-culture – HeLa F-luc CTL cells, cherry-picked, counter-screen for HIV-1 Env fusion inhibitor project, dose response (AID 652040); type: functional, cell-based;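 also: potency for signal decrease marking cytotoxic or nonspecific inhibition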
[2] = blockers of HIV-1 envelope-mediated cell-cell fusion – cherry-pick, dose response (AID 652057); type: functional, cell-based
[3] = HIV-1 AD8 envelope cell-cell fusion blockers – cherry-pick, dose response (AID 652062); type: functional, cell-based;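 also: luciferase signal from cell-cell fusion driven by HIV-1 clade B AD8 Env; potency is for inhibitors of fusion seen as a drop in luminescence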
[4] = blockers of HIV-1 ZM109 envelope-driven cell-cell fusion – HeLa effector, CEM target cells, luciferase, cherry-pick, dose response (AID 652058); type: functional, cell-based;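 also: luciferase signal from HIV-1 Env mediated cell-cell fusion of effector and target cells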
Protein skinhead-1 = biological target: T3, Protein skinhead-1 (Caenorhabditis elegans, UniProt P34707); type: functional
T3 sequence (P34707 whole entry): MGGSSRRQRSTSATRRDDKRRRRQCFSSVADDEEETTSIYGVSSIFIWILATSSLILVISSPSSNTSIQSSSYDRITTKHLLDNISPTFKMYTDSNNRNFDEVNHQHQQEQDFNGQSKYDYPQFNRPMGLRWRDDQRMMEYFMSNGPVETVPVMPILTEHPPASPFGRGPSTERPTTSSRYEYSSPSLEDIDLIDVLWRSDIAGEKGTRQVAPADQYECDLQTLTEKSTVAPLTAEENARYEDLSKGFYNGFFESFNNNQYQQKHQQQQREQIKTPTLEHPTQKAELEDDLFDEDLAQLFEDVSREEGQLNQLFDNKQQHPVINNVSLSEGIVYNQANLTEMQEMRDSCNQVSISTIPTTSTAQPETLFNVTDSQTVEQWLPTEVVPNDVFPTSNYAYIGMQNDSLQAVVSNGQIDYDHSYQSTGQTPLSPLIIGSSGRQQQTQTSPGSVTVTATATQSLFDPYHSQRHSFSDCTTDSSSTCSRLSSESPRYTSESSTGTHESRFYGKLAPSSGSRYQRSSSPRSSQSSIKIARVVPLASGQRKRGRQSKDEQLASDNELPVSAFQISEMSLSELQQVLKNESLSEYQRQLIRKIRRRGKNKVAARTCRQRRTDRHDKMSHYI

[5] = biological target: Peroxisome proliferator-activated receptor gamma/Nuclear receptor coactivator 1 (Homo sapiens, UniProt P37231); type: functional;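 also: agonist potency as compounds enhance coactivator SRC-1 recruitment to PPARgamma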
Sequence of Peroxisome proliferator-activated receptor gamma/Nuclear receptor coactivator 1 (P37231 whole entry): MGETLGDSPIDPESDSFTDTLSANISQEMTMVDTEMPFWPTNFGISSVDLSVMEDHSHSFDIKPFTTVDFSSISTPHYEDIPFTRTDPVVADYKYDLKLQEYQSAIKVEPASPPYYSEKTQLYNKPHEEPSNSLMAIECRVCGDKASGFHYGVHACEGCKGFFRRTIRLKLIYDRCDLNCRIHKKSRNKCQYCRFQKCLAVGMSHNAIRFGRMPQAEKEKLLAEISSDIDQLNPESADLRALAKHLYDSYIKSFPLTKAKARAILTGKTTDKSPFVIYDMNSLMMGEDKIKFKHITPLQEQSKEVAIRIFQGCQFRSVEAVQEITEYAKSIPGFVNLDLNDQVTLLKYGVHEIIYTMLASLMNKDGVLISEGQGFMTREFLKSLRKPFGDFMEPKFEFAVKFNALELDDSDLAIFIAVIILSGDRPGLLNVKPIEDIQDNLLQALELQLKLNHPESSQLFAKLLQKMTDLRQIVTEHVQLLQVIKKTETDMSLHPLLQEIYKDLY
Sequence of Peroxisome proliferator-activated receptor gamma/Nuclear receptor coactivator 1 (Q15788 whole entry, further chain): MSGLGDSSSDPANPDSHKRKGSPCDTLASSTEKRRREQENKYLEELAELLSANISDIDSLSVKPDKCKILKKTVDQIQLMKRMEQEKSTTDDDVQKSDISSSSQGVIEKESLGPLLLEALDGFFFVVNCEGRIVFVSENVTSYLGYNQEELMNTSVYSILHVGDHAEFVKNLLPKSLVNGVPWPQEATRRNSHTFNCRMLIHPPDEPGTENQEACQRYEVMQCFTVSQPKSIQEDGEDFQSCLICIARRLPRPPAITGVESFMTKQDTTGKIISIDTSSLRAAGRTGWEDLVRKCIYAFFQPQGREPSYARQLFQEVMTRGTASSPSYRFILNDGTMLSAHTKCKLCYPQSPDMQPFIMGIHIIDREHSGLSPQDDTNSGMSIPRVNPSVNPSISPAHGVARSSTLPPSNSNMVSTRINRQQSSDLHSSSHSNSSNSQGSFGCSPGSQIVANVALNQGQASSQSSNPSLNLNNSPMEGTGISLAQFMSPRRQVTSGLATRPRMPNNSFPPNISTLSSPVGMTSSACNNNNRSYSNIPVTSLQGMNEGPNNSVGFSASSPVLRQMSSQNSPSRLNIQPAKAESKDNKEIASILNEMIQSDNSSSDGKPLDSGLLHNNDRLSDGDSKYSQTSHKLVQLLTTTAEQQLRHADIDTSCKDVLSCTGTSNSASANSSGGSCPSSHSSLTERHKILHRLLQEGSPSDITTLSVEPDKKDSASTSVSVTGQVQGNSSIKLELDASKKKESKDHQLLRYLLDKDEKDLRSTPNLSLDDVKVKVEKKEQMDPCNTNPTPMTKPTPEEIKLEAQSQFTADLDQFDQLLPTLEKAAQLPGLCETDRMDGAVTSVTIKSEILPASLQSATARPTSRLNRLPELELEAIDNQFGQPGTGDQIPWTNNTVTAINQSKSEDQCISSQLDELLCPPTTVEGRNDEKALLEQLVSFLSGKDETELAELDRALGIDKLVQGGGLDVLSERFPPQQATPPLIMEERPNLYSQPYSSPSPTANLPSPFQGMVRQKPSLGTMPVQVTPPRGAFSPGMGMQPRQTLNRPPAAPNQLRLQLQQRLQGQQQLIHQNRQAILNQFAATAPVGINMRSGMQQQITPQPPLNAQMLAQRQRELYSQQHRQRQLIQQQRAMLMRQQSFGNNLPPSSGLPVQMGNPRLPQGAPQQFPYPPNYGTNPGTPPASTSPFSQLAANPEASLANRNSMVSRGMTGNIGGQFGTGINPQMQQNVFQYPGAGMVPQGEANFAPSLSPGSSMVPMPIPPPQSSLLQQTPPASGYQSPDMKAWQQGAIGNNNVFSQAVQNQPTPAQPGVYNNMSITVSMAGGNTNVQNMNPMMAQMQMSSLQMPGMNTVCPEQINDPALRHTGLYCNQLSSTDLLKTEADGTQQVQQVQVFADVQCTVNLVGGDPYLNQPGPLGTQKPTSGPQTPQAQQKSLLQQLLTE

[6] = biological target: Peroxisome proliferator-activated receptor gamma/Nuclear receptor coactivator 2 (Homo sapiens, UniProt P37231); type: functional;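 also: agonist potency for raising coactivator recruitment to the receptor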
Sequence of Peroxisome proliferator-activated receptor gamma/Nuclear receptor coactivator 2 (P37231 whole entry): as the sequence (P37231 whole entry) above
Sequence of Peroxisome proliferator-activated receptor gamma/Nuclear receptor coactivator 2 (Q15596 whole entry, further chain): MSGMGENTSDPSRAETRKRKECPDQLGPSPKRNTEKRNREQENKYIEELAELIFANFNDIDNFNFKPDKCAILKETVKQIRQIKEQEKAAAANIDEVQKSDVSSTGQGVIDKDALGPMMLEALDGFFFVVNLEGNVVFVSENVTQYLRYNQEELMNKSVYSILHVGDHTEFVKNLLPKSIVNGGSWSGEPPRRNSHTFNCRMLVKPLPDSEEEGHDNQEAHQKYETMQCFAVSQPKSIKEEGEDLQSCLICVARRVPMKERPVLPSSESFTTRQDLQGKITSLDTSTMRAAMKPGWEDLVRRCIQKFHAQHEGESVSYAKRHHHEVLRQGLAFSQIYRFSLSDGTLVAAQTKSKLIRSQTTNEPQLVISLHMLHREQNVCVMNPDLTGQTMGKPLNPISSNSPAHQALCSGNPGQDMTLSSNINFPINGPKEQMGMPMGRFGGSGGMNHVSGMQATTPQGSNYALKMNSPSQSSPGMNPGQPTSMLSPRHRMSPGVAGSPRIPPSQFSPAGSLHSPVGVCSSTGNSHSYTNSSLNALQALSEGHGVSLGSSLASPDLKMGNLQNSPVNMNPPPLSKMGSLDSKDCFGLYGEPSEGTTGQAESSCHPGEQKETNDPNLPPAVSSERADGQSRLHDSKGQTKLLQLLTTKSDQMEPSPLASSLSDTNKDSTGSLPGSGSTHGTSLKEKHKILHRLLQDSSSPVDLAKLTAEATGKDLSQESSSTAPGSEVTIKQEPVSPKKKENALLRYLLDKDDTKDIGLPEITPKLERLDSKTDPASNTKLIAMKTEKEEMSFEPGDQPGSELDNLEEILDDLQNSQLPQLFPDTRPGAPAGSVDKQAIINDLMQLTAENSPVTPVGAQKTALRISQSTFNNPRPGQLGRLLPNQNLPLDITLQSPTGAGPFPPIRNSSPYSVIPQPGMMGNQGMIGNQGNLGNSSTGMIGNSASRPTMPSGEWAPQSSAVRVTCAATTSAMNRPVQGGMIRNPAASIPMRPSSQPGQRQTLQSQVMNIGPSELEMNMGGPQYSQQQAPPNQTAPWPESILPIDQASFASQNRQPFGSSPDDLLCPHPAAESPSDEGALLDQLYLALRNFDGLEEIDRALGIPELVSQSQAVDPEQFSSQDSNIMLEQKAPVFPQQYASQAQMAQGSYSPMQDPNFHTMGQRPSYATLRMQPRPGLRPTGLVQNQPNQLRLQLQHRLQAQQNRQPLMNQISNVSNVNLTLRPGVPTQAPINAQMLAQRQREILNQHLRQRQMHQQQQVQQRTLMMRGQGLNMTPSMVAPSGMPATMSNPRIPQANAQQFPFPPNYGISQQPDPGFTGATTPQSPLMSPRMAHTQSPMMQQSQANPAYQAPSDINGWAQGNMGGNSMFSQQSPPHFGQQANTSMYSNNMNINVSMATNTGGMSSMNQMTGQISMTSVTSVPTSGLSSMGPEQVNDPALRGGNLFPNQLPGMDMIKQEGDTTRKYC

[7] = biological target: Peroxisome proliferator-activated receptor gamma/Nuclear receptor coactivator 3 (Homo sapiens, UniProt P37231); type: functional;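 also: agonist potency for raising coactivator recruitment to the receptor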
[8] = biological target: T4, Short transient receptor potential channel 4 (Mus musculus, UniProt Q9QUQ5); test: block of DAMGO-driven TRPC4 calcium entry – cell-based, HEK293 TRPC4/mu-opioid, Fluo-4 calcium, dose response (AID 434942); type: functional;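 also: potency of inhibitors blocking the TRPC4 calcium response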
T4 sequence (Q9QUQ5 whole entry): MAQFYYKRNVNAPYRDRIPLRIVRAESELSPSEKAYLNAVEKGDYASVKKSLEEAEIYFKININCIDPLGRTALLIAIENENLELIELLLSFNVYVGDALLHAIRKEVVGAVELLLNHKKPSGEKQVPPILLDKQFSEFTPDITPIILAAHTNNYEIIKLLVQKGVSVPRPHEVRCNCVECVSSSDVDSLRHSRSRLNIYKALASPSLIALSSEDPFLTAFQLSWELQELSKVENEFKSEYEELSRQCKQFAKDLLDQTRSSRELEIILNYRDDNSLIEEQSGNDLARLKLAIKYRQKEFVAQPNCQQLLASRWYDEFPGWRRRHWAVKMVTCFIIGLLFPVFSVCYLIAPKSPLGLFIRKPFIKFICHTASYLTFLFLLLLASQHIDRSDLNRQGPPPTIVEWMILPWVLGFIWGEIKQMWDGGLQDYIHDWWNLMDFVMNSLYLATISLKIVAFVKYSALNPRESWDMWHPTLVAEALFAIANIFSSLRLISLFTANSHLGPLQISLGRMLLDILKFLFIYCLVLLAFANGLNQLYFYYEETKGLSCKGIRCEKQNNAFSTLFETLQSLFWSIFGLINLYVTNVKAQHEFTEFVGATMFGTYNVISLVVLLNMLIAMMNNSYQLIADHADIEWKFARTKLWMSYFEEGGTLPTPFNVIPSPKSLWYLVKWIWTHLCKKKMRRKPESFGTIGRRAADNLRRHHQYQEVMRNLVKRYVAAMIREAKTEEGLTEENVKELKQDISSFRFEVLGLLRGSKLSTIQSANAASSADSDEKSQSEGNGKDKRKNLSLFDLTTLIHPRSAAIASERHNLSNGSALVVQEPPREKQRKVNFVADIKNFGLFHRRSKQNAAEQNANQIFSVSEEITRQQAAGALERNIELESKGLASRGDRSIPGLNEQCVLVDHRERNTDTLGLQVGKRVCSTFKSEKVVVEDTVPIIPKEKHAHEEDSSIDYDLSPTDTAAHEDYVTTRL

Cytochrome P450 3A4 = Cytochrome P450 3A4 (Homo sapiens, UniProt P08684);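 also: CYP3A4 tested as one member of a cytochrome P450 panel screen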
Sequence of Cytochrome P450 3A4 (P08684 whole entry): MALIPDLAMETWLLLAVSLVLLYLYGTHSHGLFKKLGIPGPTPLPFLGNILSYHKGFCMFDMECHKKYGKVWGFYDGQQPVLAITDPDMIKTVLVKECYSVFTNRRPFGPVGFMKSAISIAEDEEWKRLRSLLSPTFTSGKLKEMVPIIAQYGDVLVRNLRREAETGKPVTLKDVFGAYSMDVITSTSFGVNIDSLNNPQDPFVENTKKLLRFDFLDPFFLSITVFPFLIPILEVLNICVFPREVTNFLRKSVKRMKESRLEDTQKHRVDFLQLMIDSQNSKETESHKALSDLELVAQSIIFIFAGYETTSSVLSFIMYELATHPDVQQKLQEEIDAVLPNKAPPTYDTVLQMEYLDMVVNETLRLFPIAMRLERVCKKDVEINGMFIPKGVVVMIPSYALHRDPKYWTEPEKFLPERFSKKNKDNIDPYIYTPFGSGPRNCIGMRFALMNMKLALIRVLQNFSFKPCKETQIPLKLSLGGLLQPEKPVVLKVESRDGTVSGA

BJ [9] = test: cells; type: functional, cell-based; conditions: Homo sapiens
BJ [10] = test: BJ-TERT fibroblast viability loss – cell-based, RAS-independent, luminescence, dose response (AID 1933); type: functional; conditions: Homo sapiens
[11] = DRD fibroblast viability loss – cell-based, non-viral oncogenic, luminescence, dose response (AID 1934); type: functional; conditions: Homo sapiens
BJ [12] = test: BJ-TERT-LT-ST fibroblast viability loss – cell-based, RAS-independent, luminescence, dose response (AID 1935); type: functional; conditions: Homo sapiens;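 also: BJ fibroblasts immortalized with TERT plus LT and ST oncogenes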
H4 = test: Luminescence Cell-Based Dose Response HTS to Identify Activators of 5'UTR Stem-Loop Driven Prion Protein mRNA Translation in H4 Neuroglioblastoma Cells. [Related pubchem assays: 1829 (Project Summary), 1814 (Primary HTS)]; type: functional; conditions: Homo sapiens
[13] = Luminescence Cell-Based Dose Response HTS to Identify Activators of Luciferase Translation or Activity in H4 […] Cells. [Related pubchem assays: 1829 (Project Summary), 1814 (Primary HTS)]; type: functional

CC1=CN2C(=N)/C(=C/c3cc(Cl)c(O)c(Cl)c3)C(=O)N=C2S1
IC50 (Aminopeptidase N): 42 µM (active)

COC(=O)c1cccc(NC(=O)CSc2nnc[nH]2)c1
IC50 (Coagulation factor XII): > 50 µM (inactive)

O=C1c2cccnc2C(Nc2ccc(S(=O)(=O)N3CCCCC3)cc2)N1Cc1ccccc1 (stereo not given)
AC50 [1]: 58.9 µM (active)
AC50 [2]: 7.23 µM (active)

CC(C)(C)n1nnnc1C(c1cccs1)N(Cc1cccnc1)Cc1ccco1 (stereo not given)
AC50 [1]: 15.2 µM (active)
AC50 [2]: 3.99 µM (active)
AC50 [3]: 7.08 µM (active)
AC50 [4]: 4.74 µM (active)

FCCCOc1ccc(-c2ccnc(-c3ccccc3)n2)cc1
IC50 (Protein skinhead-1): 52.3 µM (inactive)

COc1ccc(C2CC(=O)c3c([nH]c(C(=O)OC(C)C)c3C)C2)cc1OC (stereo not given)
EC50 [5]: > 79.4 µM (not active)
EC50 [6]: > 79.4 µM (not active)
EC50 [7]: > 79.4 µM (not active)

O=C(COC(=O)C1CC1)Nc1nc(-c2ccc(F)c(F)c2)cs1
EC50 [8]: 2.99 µM (active)

O=C(Nc1ccc(F)cc1)C1CCCN1S(=O)(=O)c1ccc(Br)cc1 (stereo not given)
AC50 [1]: 14.5 µM (active)
AC50 [2]: 7.75 µM (active)
AC50 [3]: 16.3 µM (active)
AC50 [4]: 6.89 µM (active)

Cc1nc2ccccc2n1CCOc1ccc(F)cc1
EC50 [8]: 0.376 µM (active)

CCOCCCn1cnc2c(c1=O)c1nc3ccccc3nc1n2-c1ccccc1
AC50 (Cytochrome P450 3A4): 20 µM (inconclusive)
IC50 (Coagulation factor XII): > 50 µM (inactive)

COc1cccc(C2=NN(C(=O)c3ccco3)C(c3ccco3)C2)c1 (stereo not given)
EC50 [8]: 1.88 µM (active)

C[C@H]1CN([C@@H](C)CO)C(=O)c2cc(NS(=O)(=O)c3ccc(F)cc3)ccc2O[C@H]1CN(C)S(=O)(=O)c1ccc(F)cc1
AC50 [4]: 42.4 µM (active)

Cc1ccc(-n2cccn2)c(CN2CCCC(C(=O)c3ccc4c(c3)OCO4)C2)c1 (stereo not given)
EC50 [8]: 7.5 µM (active)

COc1ccc(CN(Cc2ccc(OC)cc2)C(=O)c2cccs2)cc1
IC50 (Coagulation factor XII): > 50 µM (inactive)

O=C(c1ccccc1)c1cc([N+](=O)[O-])ccc1N1CCCC1
EC50 (BJ [9]): > 150 µM (not active)
EC50 (BJ [10]): > 150 µM (not active)
EC50 [11]: > 150 µM (not active)
EC50 (BJ [12]): > 150 µM (not active)

Fc1cccc(CSc2ccc(-c3ccco3)nn2)c1
EC50 (H4): 8.43 µM (active)
IC50 (Protein skinhead-1): > 100 µM (inactive)
EC50 [13]: 49.2 µM (active)

COc1cccc2cc(C(N)=O)/c(=N\NC(=O)c3ccccc3)oc12
EC50 [8]: 0.188 µM (active)

Clc1ccc(CSc2ccc(-c3cccnc3)nn2)cc1
IC50 (Protein skinhead-1): 83.9 µM (inactive)

CCc1nnc(NC(=O)CSc2ncnc3c2oc2ccccc23)s1
EC50 [5]: 22.6 µM (not active)
EC50 [6]: 18.3 µM (not active)
EC50 [7]: 23.5 µM (not active)

Nc1nc(C2CCCN2S(=O)(=O)c2ccc(Cl)cc2)cs1 (stereo not given)
EC50 [5]: > 79.4 µM (not active)
EC50 [6]: > 79.4 µM (not active)
EC50 [7]: > 79.4 µM (not active)

CCOC(=O)c1s/c(=N\C(=O)c2ccc(OC(C)C)cc2)n(C)c1C
EC50 [5]: 18.3 µM (not active)
EC50 [6]: 16.2 µM (not active)
EC50 [7]: 20.3 µM (not active)

CC(=O)Nc1cc(NC(C)=O)cc(C(=O)OCC(=O)N2CC(C)OC(C)C2)c1 (stereo not given)
IC50 (Protein skinhead-1): > 100 µM (inactive)

CCc1nnc(NC(=O)CCC(=O)N2CCN(CCOc3ccc(C)cc3)CC2)s1
IC50 (Coagulation factor XII): > 50 µM (inactive)

CCCC(=O)NNC(=O)c1ccoc1C
IC50 (Coagulation factor XII): > 50 µM (inactive)

COc1ccc(C(=O)c2cc([N+](=O)[O-])ccc2N2CCCC2)cc1
EC50 (BJ [9]): 58.2 µM (active)
EC50 (BJ [10]): 13 µM (active)
EC50 [11]: 3.06 µM (active)
EC50 (BJ [12]): 3.87 µM (inconclusive)

COc1ccc(Cl)cc1N=C(S)NNC(=O)C1(C)CC1(Cl)Cl (stereo not given)
IC50 (Coagulation factor XII): > 50 µM (inactive)
